These results are taken from US11149011B2, “Compounds and methods for IDO and TDO modulation, and indications therefor” (Plexxikon Inc., priority 2018, dated 2021).

The target in experiment [1] is T1, IDO1-expressing HEK293 cell clones (Homo sapiens, UniProt P14902).
T1 construct: expressed in transfected cells; host or cells: HEK293
Briefly: Cell based kynurenine assay, IDO1-expressing HEK293 cell clones. Conditions: for pIC50: comparative examples 4,6 vs 5,7 indazole, cellular potency, read-out: hIDO1; for IC50: HEK293 cells, 24 hours of incubation, geometric mean, read-out: HEK293 IDO1 Kynurenine GMean IC50 (μM) (Cellular Assay). Here is the method:
(§1) IDO1-expressing or TDO-expressing HEK293 cell clones are generated upon stable transfection of plasmids expressing human IDO or human TDO under the control of CMV promoter. Cells are selected in DMEM media supplemented with 10% fetal bovine serum and 1 mg/ml G418 at 37° C. in a humidified incubator supplied with 5% CO2. The assays are performed as follows.
(§2) Cells were seeded in a 96 well plate in 50 μL of culture media at a density of 2.5×10^4 per well. Serial dilutions of compounds (in total volume of 50 μL culture media) are added into cells. 4 wells containing 0.2% DMSO treated cells serve as high controls and 4 wells containing media only with 0.2% DMSO serve as low controls. After 24 hours of incubation, the supernatant was transferred to a 384 well reaction plate and the kynurenine level determined. The percentage inhibition at individual concentrations relative to high and low controls is calculated. The data is analyzed by using nonlinear regression to generate IC50 values.

Experiment [2] concerns the target T2, IDO1 (Homo sapiens, UniProt P14902).
T2 construct: His tag (N); made in house; host or cells: E. coli
Kind of experiment: IDO enzymatic assay. Particulars: for IC50: geometric mean, read-out: IDO1 GMean: IC50 (μM) (Biochemical Assay). The experiment is classed as biochemical. Here is the method:
(§3) Human IDO or TDO with N-terminal His tag is purified in E. coli. The IDO enzymatic assay is performed using 6 nM IDO and 10 μM L-Trp in the presence of 10 mM ascorbic acid, 5 μM methylene blue, 100 nM catalase and 0.01% Tween 20 in 50 mM sodium phosphate buffer (pH 6.5). 19 μL of above reaction mixture is added to wells of 384 well reaction plate containing 1 μL of various concentrations of test compound or DMSO vehicle and incubated for 20 minutes at room temperature. The TDO enzymatic reaction assay is performed using 1 nM TDO and 350 μM L-Trp in the presence of 10 mM ascorbic acid, 0.4 μM methylene blue, 100 nM catalase and 0.01% Tween 20 in 50 mM sodium phosphate buffer (pH 6.5). 19 μL of above reaction mixture is added to wells of 384 well reaction plate containing 1 μL of various concentrations of test compound or DMSO vehicle and incubated for 70 minutes at room temperature. 16 wells containing all the components of reaction mixture and 5% DMSO serve as high control. 16 well containing all the components except enzyme of reaction mixture and 5% DMSO serves as low control. Both IDO and TDO enzymatic reactions are stopped by addition of 4 μL of 30% TCA and incubated 30 minutes at 50° C. to hydrolyze N-formylkynurenine produced by IDO or TDO to kynurenine. Upon measuring the kynurenine level, the percentage inhibition is calculated at individual concentrations relative to high and low controls. The data is analyzed by using nonlinear regression to generate IC50 values.

Experiment [3] addresses T3, TDO (Homo sapiens, UniProt P48775).
T3 construct: His tag (N); made in house; host or cells: E. coli
Briefly: TDO enzymatic assay. Particulars: geometric mean; read-out: TDO GMean: IC50 (μM) (Biochemical Assay). Here is the method:
as §3

Experiment [4] deals with T4, TDO-expressing HEK293 cell clones (Homo sapiens, UniProt P48775).
T4 construct: expressed in transfected cells; host or cells: HEK293
T4 sequence (P48775 whole entry): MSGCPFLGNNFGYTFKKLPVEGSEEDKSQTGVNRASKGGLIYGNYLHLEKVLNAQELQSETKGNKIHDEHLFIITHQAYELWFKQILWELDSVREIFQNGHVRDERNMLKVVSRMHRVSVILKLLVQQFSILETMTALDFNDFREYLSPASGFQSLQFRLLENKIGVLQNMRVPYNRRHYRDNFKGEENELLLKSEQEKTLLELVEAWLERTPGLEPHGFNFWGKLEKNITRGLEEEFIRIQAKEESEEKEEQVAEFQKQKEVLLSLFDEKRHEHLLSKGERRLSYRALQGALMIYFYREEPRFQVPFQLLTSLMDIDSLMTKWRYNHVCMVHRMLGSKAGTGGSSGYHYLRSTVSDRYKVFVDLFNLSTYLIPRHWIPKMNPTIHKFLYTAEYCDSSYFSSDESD
Kind of experiment: Cell based kynurenine assay, TDO-expressing HEK293 cell clones. Conditions: HEK293 cells, 24 hours of incubation, geometric mean; read-out: HEK293 TDO Kynurenine GMean IC50 (μM) (Cellular Assay). Here is the method: as §1, §2

The term IC50 denotes the concentration needed to halve the response being measured.

pIC50: −log10 of the molar value. Like-named read-outs stand apart in the source and are kept apart here.

T3 sequence (P48775 whole entry): as above
T2 sequence (P14902 whole entry): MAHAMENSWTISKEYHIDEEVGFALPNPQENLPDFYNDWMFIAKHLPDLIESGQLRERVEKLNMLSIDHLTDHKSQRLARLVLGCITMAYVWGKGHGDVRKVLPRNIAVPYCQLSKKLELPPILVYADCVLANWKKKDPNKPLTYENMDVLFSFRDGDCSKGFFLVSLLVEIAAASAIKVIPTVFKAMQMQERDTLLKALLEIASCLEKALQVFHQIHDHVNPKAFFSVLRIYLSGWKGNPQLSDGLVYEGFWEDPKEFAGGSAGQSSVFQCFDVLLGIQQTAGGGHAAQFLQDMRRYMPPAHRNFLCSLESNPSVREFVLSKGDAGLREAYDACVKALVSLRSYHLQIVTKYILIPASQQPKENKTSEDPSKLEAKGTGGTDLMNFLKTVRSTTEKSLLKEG
T1 sequence (P14902 whole entry): as above

Regarding `OC1(c2cc(Cl)cc3cn[nH]c23)CC2(CCC2)C1`, in experiment [1], the pIC50 was not above 5.00.
Same read-out and setting: the figure for `OC1(c2cc(Cl)cc3[nH]ncc23)CC2(CCC2)C1` is not above 5.00.
On to `OC1(c2cc(Cl)cc3[nH]ncc23)CC2(CCOCC2)C1`, for which the pIC50 is 3.70 in experiment [2] (comparative examples 4,6 vs 5,7 indazole, biochemical potency, read-out: IDO1) and not above 5.00 in experiment [1].
`OC1(c2cc(Cl)cc3cn[nH]c23)CCC(F)(F)CC1` [Compound P-0008, 1-(5-chloro-1H-indazol-7-yl)-4,4-difluorocyclohexan-1-ol]: the IC50 in experiment [2], in experiment [3], in experiment [1] and in experiment [4] was 0.0001 to 10 µM each time.
Take `OC1(c2cc(Cl)cc3cn[nH]c23)CC2(CC2)C1` [Compound P-0011, 5-(5-chloro-1H-indazol-7-yl)spiro[2.3]hexan-5-ol]: the IC50 in experiment [2], in experiment [3] and in experiment [4] was 0.0001 to 10 µM in each case.
With `CC(C)(C)OC(=O)N1CCC2(CC1)CC(O)(c1cc(Cl)cc3cn[nH]c13)C2` [Compound P-0013, tert-butyl 2-(5-chloro-1H-indazol-7-yl)-2-hydroxy-7-azaspiro[3.5]nonane-7-carboxylate], the half-maximal inhibitory concentration (IC50) in experiment [2], in experiment [3] and in experiment [4] was 0.0001 to 10 µM in each case.
On to `OC1(c2cc(Cl)cc3cn[nH]c23)CC2(CCNCC2)C1` [Compound P-0014, 2-(5-chloro-1H-indazol-7-yl)-7-azaspiro[3.5]nonan-2-ol], for which the half-inhibitory concentration (IC50) in experiment [2] is 0.0001 to 10 µM.
Turning to `CS(=O)(=O)N1CCC(O)(c2cc(Cl)cc3cn[nH]c23)CC1` [Compound P-0017, 4-(5-chloro-1H-indazol-7-yl)-1-(methylsulfonyl)piperidin-4-ol], the half-maximal inhibitory concentration (IC50) in experiment [2], in experiment [3] and in experiment [4] was 0.0001 to 10 µM in each case.
In the case of `CS(=O)(=O)N1CC(O)(c2cc(Cl)cc3cn[nH]c23)C1` [Compound P-0018, 3-(5-chloro-1H-indazol-7-yl)-1-(methylsulfonyl)azetidin-3-ol], the half-maximal inhibitory concentration (IC50) in experiment [2], in experiment [3] and in experiment [4] was 0.0001 to 10 µM in each case.
As to `CC(C)(C1CCN(C(=O)NCc2ccncc2)CC1)[C@H](O)c1cc(Cl)cc2cn[nH]c12` [Compound P-0019, (S)-4-(1-(5-chloro-1H-indazol-7-yl)-1-hydroxy-2-methylpropan-2-yl)-N-(pyridin-4-ylmethyl)piperidine-1-carboxamide], the IC50 in experiment [2], in experiment [3], in experiment [1] and in experiment [4] was 0.0001 to 10 µM in each case.
For `CC(C)(C1CCN(C(=O)NCCN2CCOCC2)CC1)[C@H](O)c1cc(Cl)cc2cn[nH]c12` [Compound P-0020, (S)-4-(1-(5-chloro-1H-indazol-7-yl)-1-hydroxy-2-methylpropan-2-yl)-N-(2-morpholinoethyl)piperidine-1-carboxamide], the IC50 in experiment [2], in experiment [3], in experiment [1] and in experiment [4] was 0.0001 to 10 µM in each case.
On to `C[C@H](NC(=O)N1CCC(C(C)(C)[C@H](O)c2cc(Cl)cc3cn[nH]c23)CC1)c1ccccn1` [Compound P-0021, 4-((S)-1-(5-chloro-1H-indazol-7-yl)-1-hydroxy-2-methylpropan-2-yl)-N-((S)-1-(pyridin-2-yl)ethyl)piperidine-1-carboxamide], for which the IC50 in experiment [2], in experiment [3], in experiment [1] and in experiment [4] was 0.0001 to 10 µM throughout.
For the molecule `CC(C)(C1CCN(C(=O)N2CCS(=O)(=O)CC2)CC1)[C@H](O)c1cc(Cl)cc2cn[nH]c12` [Compound P-0022, (S)-(4-(1-(5-chloro-1H-indazol-7-yl)-1-hydroxy-2-methylpropan-2-yl)piperidin-1-yl)(1,1-dioxidothiomorpholino)methanone], the IC50 in experiment [2], in experiment [3], in experiment [1] and in experiment [4] was 0.0001 to 10 µM each time.
As for `CC(C)(C1CCN(C(=O)NCC2COC2)CC1)[C@H](O)c1cc(Cl)cc2cn[nH]c12` [Compound P-0023, (S)-4-(1-(5-chloro-1H-indazol-7-yl)-1-hydroxy-2-methylpropan-2-yl)-N-(oxetan-3-ylmethyl)piperidine-1-carboxamide], the IC50 in experiment [2], in experiment [3], in experiment [1] and in experiment [4] was 0.0001 to 10 µM each time.
With `CC(C)(C1CCN(C(=O)N[C@H]2CCC[C@@H]2O)CC1)[C@H](O)c1cc(Cl)cc2cn[nH]c12` [Compound P-0024, 4-((S)-1-(5-chloro-1H-indazol-7-yl)-1-hydroxy-2-methylpropan-2-yl)-N-((1S,2S)-2-hydroxycyclopentyl)piperidine-1-carboxamide], the IC50 in experiment [2], in experiment [3], in experiment [1] and in experiment [4] was 0.0001 to 10 µM each time.
On to `CC(C)(C1CCN(C(=O)N[C@H]2CCC[C@H]2O)CC1)[C@H](O)c1cc(Cl)cc2cn[nH]c12` [Compound P-0025, 4-((S)-1-(5-chloro-1H-indazol-7-yl)-1-hydroxy-2-methylpropan-2-yl)-N-((1S,2R)-2-hydroxycyclopentyl)piperidine-1-carboxamide], for which the IC50 in experiment [2], in experiment [3], in experiment [1] and in experiment [4] was 0.0001 to 10 µM throughout.
As for `CC(C)(C1CCN(C(=O)NCc2cncnc2)CC1)[C@H](O)c1cc(Cl)cc2cn[nH]c12` [Compound P-0026, (S)-4-(1-(5-chloro-1H-indazol-7-yl)-1-hydroxy-2-methylpropan-2-yl)-N-(pyrimidin-5-ylmethyl)piperidine-1-carboxamide], the IC50 in experiment [2], in experiment [3], in experiment [1] and in experiment [4] was 0.0001 to 10 µM in each case.
`CC(=O)N1CCC(C(F)(F)C(O)c2c(F)c(Cl)cc3cn[nH]c23)CC1` (centres unmarked) [Compound P-0056, 1-(4-(2-(5-chloro-6-fluoro-1H-indazol-7-yl)-1,1-difluoro-2-hydroxyethyl)piperidin-1-yl)ethan-1-one]: in experiment [4], the IC50 was more than 10 µM.
`O=S1(=O)CC2(CC(O)(c3cc(Cl)cc4cn[nH]c34)C2)C1` [Compound P-0057, 6-(5-chloro-1H-indazol-7-yl)-6-hydroxy-2-thiaspiro[3.3]heptane 2,2-dioxide]: the IC50 in experiment [2], in experiment [3] and in experiment [4] was 0.0001 to 10 µM each time.
As for `CC(C)(C1CCN(C(=O)[C@@H]2CCCN2)CC1)[C@H](O)c1cc(Cl)cc2cn[nH]c12` [Compound P-0138, (4-((S)-1-(5-chloro-1H-indazol-7-yl)-1-hydroxy-2-methylpropan-2-yl)piperidin-1-yl)((S)-1λ^2-pyrrolidin-2-yl)methanone], the IC50 in experiment [1] and in experiment [4] was 0.0001 to 10 µM in each case.
With `CC(C)(C1CCN(C(=O)[C@H]2CCCN2)CC1)[C@H](O)c1cc(Cl)cc2cn[nH]c12` [Compound P-0139, (4-((S)-1-(5-chloro-1H-indazol-7-yl)-1-hydroxy-2-methylpropan-2-yl)piperidin-1-yl)((R)-1λ^2-pyrrolidin-2-yl)methanone], the IC50 in experiment [1] and in experiment [4] was 0.0001 to 10 µM throughout.
In the case of `CC(C)(C1CCN(C(=O)[C@@H]2CCNC2)CC1)[C@H](O)c1cc(Cl)cc2cn[nH]c12` [Compound P-0140, (4-((S)-1-(5-chloro-1H-indazol-7-yl)-1-hydroxy-2-methylpropan-2-yl)piperidin-1-yl)((R)-1λ^2-pyrrolidin-3-yl)methanone], the values for the IC50 in experiment [1] and in experiment [4] were 0.0001 to 10 µM and more than 10 µM, respectively.
The like results for `CC(C)(C1CCN(C(=O)[C@H]2CCNC2)CC1)[C@H](O)c1cc(Cl)cc2cn[nH]c12` [Compound P-0141, (4-((S)-1-(5-chloro-1H-indazol-7-yl)-1-hydroxy-2-methylpropan-2-yl)piperidin-1-yl)((S)-1λ^2-pyrrolidin-3-yl)methanone] were, in that order, 0.0001 to 10 µM and more than 10 µM.
